Publication PMC11464717, “Structural basis for antibiotic transport and inhibition in PepT2” (Nature Communications, 2024)
Values joined by “and” are separate entries in the source; they are usually repeats but may differ in a detail not shown here. Equal values may be shown once. Read-outs that look alike come from different tables or passages of the source. Where a SMILES comes first, the peptide text is derived from it.

Assays:
rat PepT2 [1] = biological target: T1, rat PepT2 (Rattus norvegicus, UniProt Q63424); assay: Counterflow transport assay in PepT2 proteoliposomes; format: biochemical; details: for Counterflow transport, individual experiments (source data Fig 1d): relative to di-alanine; for Counterflow activity relative to L-Ala-L-Ala: Supplementary Table 2, RnPepT2 reconstituted liposome assay; for Ability to drive transport in counterflow: result in words, cloxacillin also at 10 mM
T1 construct: His-tagged GFP (C, cleaved yes); made in house; host or cells: HEK293F cells
T1 sequence (Q63424 1-729): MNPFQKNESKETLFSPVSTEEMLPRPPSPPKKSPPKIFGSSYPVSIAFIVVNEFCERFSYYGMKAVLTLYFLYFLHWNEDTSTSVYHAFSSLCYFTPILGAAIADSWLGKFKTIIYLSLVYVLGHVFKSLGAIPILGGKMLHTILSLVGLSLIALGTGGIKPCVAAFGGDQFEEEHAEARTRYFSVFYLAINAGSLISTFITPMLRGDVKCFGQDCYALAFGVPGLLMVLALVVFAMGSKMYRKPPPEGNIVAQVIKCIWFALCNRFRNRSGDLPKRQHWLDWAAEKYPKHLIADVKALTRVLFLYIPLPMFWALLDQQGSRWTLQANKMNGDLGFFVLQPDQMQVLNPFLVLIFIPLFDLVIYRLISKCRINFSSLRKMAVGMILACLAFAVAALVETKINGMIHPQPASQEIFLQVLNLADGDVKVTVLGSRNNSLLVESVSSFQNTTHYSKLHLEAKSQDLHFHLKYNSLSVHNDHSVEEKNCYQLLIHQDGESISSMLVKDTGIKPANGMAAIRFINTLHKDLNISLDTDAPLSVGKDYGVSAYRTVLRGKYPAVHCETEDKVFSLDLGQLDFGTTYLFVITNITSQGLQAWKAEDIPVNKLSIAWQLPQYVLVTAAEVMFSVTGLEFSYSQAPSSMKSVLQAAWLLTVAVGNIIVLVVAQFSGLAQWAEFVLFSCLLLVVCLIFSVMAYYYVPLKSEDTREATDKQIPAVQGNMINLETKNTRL
Description: (§1) PepT2 was reconstituted into liposomes consisting of a 3:1 POPE:POPG (Avanti polar lipids, USA, Cat. No. 850757 C, 840457 C) using biobeads. The lipids were dried to obtain a thin film using a rotary evaporator and washed twice in pentane before being resuspended at 10 mg mL^–1 in lipid buffer (50 mM potassium phosphate at pH 7.5). These lipid vesicles were frozen and thawed twice in liquid nitrogen and stored at −80 °C until required. For reconstitution, the lipids were thawed and then extruded first through a 0.8-μm filter and then through a 0.4-μm filter. Purified PepT2 at 0.3 μg μl^−1 was added to the lipids at a final lipid:protein ratio of 100:1 (w/w) for transport assays or 10:1 for solid support membrane (SSM) experiments and incubated for 1 h at room temperature, then for a further 1 h on ice. After this time, biobeads were added in batches. After 24 h biobeads were removed and the proteoliposomes harvested by centrifugation at 120,000 g for 40 min before resuspension in lipid buffer at a final protein concentration of 0.25 μg μl^−1, or 0.5 ug ul^−1 for liposomes for SSM. They were subjected to three rounds of freeze–thawing in liquid nitrogen before storage at −80 °C.
Proteoliposomes were harvested through centrifugation before resuspending in counterflow buffer (50 mM potassium phosphate pH 7.5) containing 0.5 mM peptide or antibiotic (unless stated otherwise) or water as the negative control and were subjected to four rounds of freeze thawing in liquid nitrogen to fully distribute the buffer and ligand. The proteoliposomes were then extruded through a 0.2-μm filter. Transport was initiated by diluting into counterflow buffer containing 40 μM di-alanine with trace amounts of ^3H di-alanine, transport was allowed to proceed for 5 minutes before termination of the experiments through rapidly filtering onto 0.22-μm filters, which were then washed with 2 × 2 mL cold water. The amount of peptide transported inside the liposomes was calculated as above. Experiments were performed a minimal of five times and plotted as the level of transport for each ligand compared to the level observed with di-alanine as a percentage.

rat PepT2 [2] = biological target: T1, rat PepT2; assay: Inhibition of uptake of radioactive di-alanine peptide into PepT2 proteoliposomes (IC50); format: biochemical
Description: as §1, with “The” for “PepT2 was reconstituted into liposomes consisting of a 3:1 POPE:POPG (Avanti polar lipids, USA, Cat. No. 850757 C, 840457 C) using biobeads. The”
The reaction was initiated through the addition of valinomycin at 1 μM and stopped after 4 minutes by rapidly filtering onto 0.22-μm filters, which were then washed with 2 × 2 mL cold water. […] Experiments were performed three times (from at least 2 independent purifications and reconstitutions) to generate an overall mean and s.d.

PepT2 = details: cell-based assays, inhibition of a radioactive reporter peptide; cited from earlier work
rat PepT2 [3] = biological target: T1, rat PepT2; assay: SSM-based electrophysiology (SURFE2R) of reconstituted PepT2; format: biochemical; details: result in words
Description: as §1
SSM-based assays were performed on a SURFE^2R N1 (Nanion Technologies) with sensors prepared as follows. 50 μl of 0.5 mM 1-octadecanethiol solution in isopropanol was added to the sensor and left overnight. The sensor was rinsed three times with isopropanol and then three times with water before being allowed to dry. 1.5 ul of 7.5 μg/μl 1,2-diphytanoyl-sn-glycero-3-phosphocholin in n-decane was applied to the surface of the sensor. Immediately after this 50 ul of non-activating buffer were added and left for an hour at room temperature. Proteoliposomes were diluted (5 ul liposomes with 36 ul buffer) in non-activating buffer (20 mM HEPES, 140 mM KCl, 2 mM MgCl2 pH 7.2) and sonicated four times for 10 s in a water bath before application (2–6 μl) to the prepared 3 mm sensors. Sensors were incubated at room temperature and centrifugation at 2800 g for 30 min at 10 °C and incubated at room temperature for at least an hour prior to assaying. The activating buffer was made with the desired concentration of ligand (alanine, di-alanine, or the antibiotics of interest) in non-activating buffer. A single solution exchange workflow was used with activating buffer applied at 1 s and removed at 2 s. This technique was used to distinguish between antibiotics substrate (gives a current, similar to a known peptide control – di-alanine) and inhibitor (no current observed similar to a known non substrate, alanine) and raw traces from 1–3 s are shown in Fig. 1.

[4] = biological target: T2, PepT2 (SLC15A2) from Rattus norvegicus (Rattus norvegicus, UniProt Q63424)
T2 construct: Proton-coupled peptide transporter PepT2 (SLC15A2), Rattus norvegicus; The extracellular domain is in the protein but was not built in the deposited models; also called rat PepT2; ratPepT2; source: HEK293F, transfected, purified (nickel NTA, TEV cleavage, SEC) in DDM:CHS; also reconstituted into POPE:POPG liposomes; not shown: GFP, C-terminal, cleaved; His tag, C-terminal, cleaved

[5] = 5 min, read-out: Counterflow activity relative to L-Ala-L-Ala
[6] = Supplementary Table 2, RnPepT2 reconstituted liposome assay, read-out: IC50 (µM) relative to L-Ala-L-Ala
[7] = rat PepT2 in liposomes, inhibition of 3H di-alanine uptake, 4 minutes, mean of n = 3 (SD), read-out: IC50
[8] = single independent experiments, 3 per ligand, read-out: IC50, individual experiments (source data Fig 1c)
[9] = 0.5 mM ligand, listed as Ala-Ala
[10] = IC50, rat PepT2 in liposomes, inhibition of 3H di-alanine uptake, 4 minutes, mean of n = 3 (SD)

Compound | Counterflow activity relative to L-Ala-L-Ala (rat PepT2 [1]; [5]) [%] | Ability to drive transport in counterflow (rat PepT2 [1]) | IC50 (rat PepT2 [2]; [7]) [µM] | IC50 (rat PepT2 [2]; [8]) | Capacitance change / current on solid support membrane (rat PepT2 [3]) | other results
CC1=C(C(=O)O)N2C(=O)[C@@H](NC(=O)[C@H](N)c3ccc(O)cc3)[C@H]2SC1 [Cefadroxil, cefadroxil] | 120 | more effectively than di-alanine | 19 | 22 µM and 17 µM | significant capacitance change | Counterflow transport, individual experiments (source data Fig 1d) (rat PepT2 [1]; 0.5 mM ligand): 117 and 120.6 and 118 and 125 and 128; IC50 (rat PepT2 [2]; [6]): 20 µM; Ki (PepT2): 3 µM
Nc1nc(/C(=C/CC(=O)O)C(=O)N[C@@H]2C(=O)N3C(C(=O)O)=CCS[C@H]23)cs1 [Ceftibuten, ceftibuten] | 0 | cannot transport |  |  |  | Counterflow transport, individual experiments (source data Fig 5a) (rat PepT2 [1]; 4 mM ligand): 6.7 and 5.6 and 6.9; IC50 (rat PepT2 [2]; [6]): 1200 µM; IC50 (rat PepT2 [2]; rat PepT2 in liposomes, inhibition of 3H di-alanine uptake, read-out: IC50): 1000 µM
C[C@H](N)C(=O)N[C@@H](C)C(=O)O [di-alanine, L-Ala-L-Ala] (H-Ala-Ala-OH) |  |  | 32 |  | significant capacitance change | Counterflow transport, individual experiments (source data Fig 1d) (rat PepT2 [1]; [9]): 100 and 99.8 and 108.7 and 97.1 and 95.2; Counterflow transport, individual experiments (source data Fig 5a) (rat PepT2 [1]; [9]): 97.2 and 101.1 and 99.1 and 100.3; Counterflow activity relative to L-Ala-L-Ala (rat PepT2 [1]): 100; IC50 (rat PepT2 [2]; single independent experiments, 3 per ligand, listed as Ala-Ala, read-out: IC50, individual experiments (source data Fig 1c)): 34.6 µM and 31.2 µM and 29.4 µM
Cc1onc(-c2ccccc2Cl)c1C(=O)N[C@@H]1C(=O)N2[C@@H]1SC(C)(C)[C@@H]2C(=O)O [Cloxacillin, cloxacillin] | 0 | unable to drive transport |  | 180 µM and 220 µM and 210 µM |  | Counterflow transport, individual experiments (source data Fig 1d) (rat PepT2 [1]; 0.5 mM ligand): 4.1 and 3.2 and 4 and 1 and 3.1; Counterflow transport, individual experiments (source data Fig 1d) (rat PepT2 [1]; 10 mM ligand): 2.7 and 1.2 and 5.4 and 3.4 and 2.5; IC50 (rat PepT2 [2]; [10]): 203 µM; Ki (PepT2): 1000 µM
N[C@@H](CCCCNC(=O)OCc1ccc([N+](=O)[O-])cc1)C(=O)N1CCC[C@H]1C(=O)O [LZNP, Lys [Z(NO2)]-Proline] |  |  |  |  |  | Counterflow transport, individual experiments (source data Fig 1d) (rat PepT2 [1]; 0.5 mM ligand): 3.8 and 4.1 and 6.1 and 5.4
C[C@H](N)C(=O)O [alanine] |  |  |  |  | non-transported | 
N[C@@H](C(=O)N[C@@H]1C(=O)N2C(C(=O)O)=C(Cl)CS[C@H]12)c1ccccc1 [Cefaclor, cefaclor] | 76 |  |  | 55 µM and 58 µM and 42 µM |  | Counterflow transport, individual experiments (source data Fig 5a) (rat PepT2 [1]; 0.5 mM ligand): 82 and 72.2 and 77.1 and 71.3; Counterflow activity relative to di-alanine (rat PepT2 [1]; uptake of 3H di-alanine, 5 minutes, level relative to di-alanine, 0.5 mM ligand unless stated otherwise): 76%
di-alanine peptide |  |  |  |  |  | IC50 of inhibition of the uptake of radioactive (3H) di-alanine into PepT2 proteoliposomes [4]: 32 µM
CC1(C)S[C@@H]2[C@H](NC(=O)[C@H](N)c3ccccc3)C(=O)N2[C@H]1C(=O)O [Ampicillin, ampicillin] |  |  |  |  |  | IC50 (rat PepT2 [2]; [10]): 750 µM
CC1(C)S[C@@H]2[C@H](NC(=O)Cc3ccccc3)C(=O)N2[C@H]1C(=O)O [Benzylpenicillin, benzylpenicillin] | 0 | cannot transport |  |  |  | Counterflow transport, individual experiments (source data Fig 5a) (rat PepT2 [1]; 10 mM ligand): 7.2 and 6.8 and 6.2 and 4.1
CO[C@@]1(NC(=O)C(C(=O)O)c2ccc(O)cc2)C(=O)N2C(C(=O)O)=C(CSc3nnnn3C)CO[C@@H]21 (some centres unmarked) [Moxalactam, moxalactam] | 0 | cannot transport | 500 |  |  | Counterflow transport, individual experiments (source data Fig 5a) (rat PepT2 [1]; 1 mM ligand): 5.6 and 5.3 and 6.5 and 4.2
CC1(C)S[C@@H]2[C@H](NC(=O)[C@H](N)c3ccc(O)cc3)C(=O)N2[C@H]1C(=O)O [Amoxicillin, amoxicillin] | 33 |  | 270 | 225 µM and 301 µM and 280 µM | significant capacitance change | Counterflow transport, individual experiments (source data Fig 1d) (rat PepT2 [1]; 0.5 mM ligand, listed as Amoxacillin): 29 and 39.2 and 34.1 and 35 and 28; Ki (PepT2): 200 to 430 µM
